From ChEMBL document CHEMBL1201862, “PubChem BioAssay data set” (2004)
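Protocol summary: plate cells (96-well), add compound at 5 concentrations, incubate 48 h, interpolate endpoints linearly. Abbreviation: GI50, concentration required for 50% inhibition of growth.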 Calls of active or inactive are those of the source. Cut-off read from the data, not from the text of the source: active = GI50 up to about 1.1 µM and inactive = higher.

Tests used:
Assay in all cases: growth of human tumour cells (NCI), 48 h
HOP-92 = tested on: HOP-92
SK-OV-3 = tested on: SK-OV-3
OVCAR-5 = tested on: OVCAR-5
COLO 205 = tested on: COLO 205
RPMI-8226 = tested on: RPMI-8226
MOLT-4 = tested on: MOLT-4
CAKI-1 = tested on: CAKI-1
SNB-19 = tested on: SNB-19
IGROV-1 = tested on: IGROV-1
U-251 = tested on: U-251
786-0 = tested on: 786-0
A549 = tested on: A549
RXF 631 = tested on: RXF 631
SF-295 = tested on: SF-295
DMS-114 = tested on: DMS-114
NCI-H522 = tested on: NCI-H522
HT-29 = tested on: HT-29
NCI-H460 = tested on: NCI-H460
K562 = tested on: K562
UACC-62 = tested on: UACC-62
SK-MEL-2 = tested on: SK-MEL-2
UO-31 = tested on: UO-31
TK-10 = tested on: TK-10
OVCAR-4 = tested on: OVCAR-4
HCT-15 = tested on: HCT-15
KM12 = tested on: KM12
XF498 = tested on: XF498
RXF 393 = tested on: RXF 393
NCI-H226 = tested on: NCI-H226
DMS-273 = tested on: DMS-273
NCI-H23 = tested on: NCI-H23
CCRF-CEM = tested on: CCRF-CEM
SF-539 = tested on: SF-539
OVCAR-8 = tested on: OVCAR-8
HCC 2998 = tested on: HCC 2998
OVCAR-3 = tested on: OVCAR-3
SK-MEL-5 = tested on: SK-MEL-5
M19-MEL = tested on: M19-MEL
SNB-75 = tested on: SNB-75
SN12C = tested on: SN12C
ACHN = tested on: ACHN
SK-MEL-28 = tested on: SK-MEL-28
SW-620 = tested on: SW-620
M14 = tested on: M14
HCT-116 = tested on: HCT-116
Malme-3M = tested on: Malme-3M
SR = tested on: SR
HOP-18 = tested on: HOP-18
LXFL 529 = tested on: LXFL 529
EKVX = tested on: EKVX
UACC-257 = tested on: UACC-257
HOP-62 = tested on: HOP-62
LOX IMVI = tested on: LOX IMVI
HL-60 = tested on: HL-60
KM-20L2 = tested on: KM-20L2
SNB-78 = tested on: SNB-78
MDA-MB-435 = tested on: MDA-MB-435
DLD-1 = tested on: DLD-1
PC-3 = tested on: PC-3
SF-268 = tested on: SF-268
MCF7 = tested on: MCF7
DU-145 = tested on: DU-145
MDA-MB-231 = tested on: MDA-MB-231
A498 = tested on: A498
NCI/ADR-RES = tested on: NCI/ADR-RES
MDA-N = tested on: MDA-N
T47D = tested on: T47D
Hs-578T = tested on: Hs-578T
BT-549 = tested on: BT-549

In the case of `COc1cccc(C(=O)N2CCc3ccccc32)c1OC`, the GI50 (HOP-92) is reported as 53.5 µM (inactive), the GI50 (SK-OV-3) is reported as 48.8 µM (inactive) and the GI50 (OVCAR-5) is reported as > 100 µM (inactive). The GI50 (COLO 205) was 58.7 µM (inactive), the GI50 (RPMI-8226) was 35.3 µM (inactive) and the GI50 (MOLT-4) was 23 µM (inactive). The GI50 (CAKI-1) was 38.5 µM (inactive), the GI50 (SNB-19) was 74.8 µM (inactive) and the GI50 (IGROV-1) was > 100 µM (inactive). The GI50 (U-251) was 52.7 µM (inactive), the GI50 (786-0) was > 100 µM (inactive) and the GI50 (A549) was > 100 µM (inactive). The GI50 (RXF 631) was 58.5 µM (inactive), the GI50 (SF-295) was 38.5 µM (inactive) and the GI50 (DMS-114) was 43.8 µM (inactive). The GI50 (NCI-H522) was 47.6 µM (inactive), the GI50 (HT-29) was 38.9 µM (inactive) and the GI50 (NCI-H460) was 81.8 µM (inactive). The GI50 (K562) was 34.7 µM (inactive), the GI50 (UACC-62) was 47 µM (inactive) and the GI50 (SK-MEL-2) was > 100 µM (inactive). For the same compound, the GI50 (UO-31) was > 100 µM (inactive), the GI50 (TK-10) was 57.8 µM (inactive) and the GI50 (OVCAR-4) was 48.9 µM (inactive). The GI50 (HCT-15) was 21 µM, the GI50 (KM12) was 34.7 µM (inactive) and the GI50 (XF498) was 40.3 µM (inactive). For the same compound, the GI50 (RXF 393) was 63.1 µM (inactive), the GI50 (NCI-H226) was 90.6 µM (inactive) and the GI50 (DMS-273) was 41 µM (inactive). For the same compound, the GI50 (NCI-H23) was 34.4 µM (inactive), the GI50 (CCRF-CEM) was 42.2 µM (inactive) and the GI50 (SF-539) was > 100 µM (inactive). For the same compound, the GI50 (OVCAR-8) was 78.3 µM (inactive), the GI50 (HCC 2998) was 85.1 µM (inactive) and the GI50 (OVCAR-3) was 38.5 µM (inactive). For the same compound, the GI50 (SK-MEL-5) was 69.8 µM (inactive), the GI50 (M19-MEL) was > 100 µM (inactive) and the GI50 (SNB-75) was 68.4 µM (inactive). For the same compound, the GI50 (SN12C) was > 100 µM (inactive), the GI50 (ACHN) was 64.9 µM (inactive) and the GI50 (SK-MEL-28) was > 100 µM (inactive). The GI50 (SW-620) was 41.9 µM (inactive), the GI50 (M14) was 43.6 µM (inactive) and the GI50 (HCT-116) was 56.5 µM (inactive). For the same compound, the GI50 (Malme-3M) was 60.4 µM (inactive), the GI50 (SR) was 29.4 µM (inactive) and the GI50 (HOP-18) was 34.1 µM (inactive). The GI50 (LXFL 529) was 74 µM (inactive), the GI50 (EKVX) was > 100 µM (inactive) and the GI50 (UACC-257) was 53.1 µM (inactive). The GI50 (HOP-62) was > 100 µM (inactive), the GI50 (LOX IMVI) was 87.7 µM (inactive) and the GI50 (HL-60) was 27.8 µM (inactive). The GI50 (KM-20L2) was 80.2 µM (inactive) and the GI50 (SNB-78) was > 100 µM (inactive).

In the case of `N#Cc1cccc(N2C(=O)C3C4C=CC(C3C2=O)C2C(=O)N(c3cccc(C#N)c3)C(=O)C42)c1` (centres undefined), the GI50 (HOP-92) is reported as 15.2 µM (inactive), the GI50 (SK-OV-3) is reported as 17.1 µM (inactive) and the GI50 (OVCAR-5) is reported as > 63.1 µM (inactive). For the same compound, the GI50 (COLO 205) was > 63.1 µM (inactive), the GI50 (MDA-MB-435) was > 100 µM (inactive) and the GI50 (RPMI-8226) was > 56.2 µM (inactive). For the same compound, the GI50 (MOLT-4) was 41.8 µM (inactive), the GI50 (DLD-1) was > 46.5 µM (inactive) and the GI50 (PC-3) was > 100 µM (inactive). For the same compound, the GI50 (CAKI-1) was 55.5 µM (inactive), the GI50 (SNB-19) was 31.2 µM (inactive) and the GI50 (SF-268) was 19.8 µM (inactive). For the same compound, the GI50 (IGROV-1) was 29.7 µM (inactive), the GI50 (U-251) was 10.1 µM (inactive) and the GI50 (786-0) was 33.1 µM (inactive). For the same compound, the GI50 (A549) was 51.2 µM (inactive), the GI50 (RXF 631) was 24.7 µM (inactive) and the GI50 (SF-295) was 17.1 µM (inactive). For the same compound, the GI50 (DMS-114) was 16.3 µM (inactive), the GI50 (NCI-H522) was 22.7 µM (inactive) and the GI50 (HT-29) was > 63.1 µM (inactive). The GI50 (NCI-H460) was > 63.1 µM (inactive), the GI50 (K562) was 46.9 µM (inactive) and the GI50 (MCF7) was > 100 µM (inactive). For the same compound, the GI50 (DU-145) was > 100 µM (inactive), the GI50 (MDA-MB-231) was > 51.5 µM (inactive) and the GI50 (UACC-62) was 54 µM (inactive). The GI50 (SK-MEL-2) was 22.8 µM (inactive), the GI50 (UO-31) was 49.1 µM (inactive) and the GI50 (TK-10) was 26.5 µM (inactive). For the same compound, the GI50 (OVCAR-4) was > 63.1 µM (inactive), the GI50 (HCT-15) was over 63.1 µM and the GI50 (KM12) was > 56.2 µM (inactive). The GI50 (XF498) was 15.5 µM (inactive), the GI50 (RXF 393) was 10.2 µM (inactive) and the GI50 (NCI-H226) was 62.1 µM (inactive). For the same compound, the GI50 (DMS-273) was 15.2 µM (inactive), the GI50 (NCI-H23) was 27.6 µM (inactive) and the GI50 (A498) was 22.4 µM (inactive). For the same compound, the GI50 (CCRF-CEM) was 44.8 µM (inactive), the GI50 (SF-539) was 29.3 µM (inactive) and the GI50 (OVCAR-8) was 37.8 µM (inactive). For the same compound, the GI50 (HCC 2998) was > 56.2 µM (inactive), the GI50 (OVCAR-3) was > 77.3 µM (inactive) and the GI50 (SK-MEL-5) was > 63.1 µM (inactive). The GI50 (NCI/ADR-RES) was > 100 µM (inactive), the GI50 (SNB-75) was 6.12 µM (inactive) and the GI50 (SN12C) was > 39.8 µM (inactive). The GI50 (ACHN) was 40.7 µM (inactive), the GI50 (SK-MEL-28) was > 63.1 µM (inactive) and the GI50 (SW-620) was > 100 µM (inactive). For the same compound, the GI50 (MDA-N) was > 100 µM (inactive), the GI50 (M14) was 59 µM (inactive) and the GI50 (HCT-116) was 21 µM (inactive). For the same compound, the GI50 (Malme-3M) was 53.6 µM (inactive), the GI50 (SR) was 37.6 µM (inactive) and the GI50 (T47D) was > 31.6 µM (inactive). For the same compound, the GI50 (HOP-18) was > 65.2 µM (inactive), the GI50 (LXFL 529) was > 46.5 µM (inactive) and the GI50 (EKVX) was > 100 µM (inactive). For the same compound, the GI50 (UACC-257) was > 63.1 µM (inactive), the GI50 (HOP-62) was 18.3 µM (inactive) and the GI50 (Hs-578T) was 40 µM (inactive). The GI50 (LOX IMVI) was 61.9 µM (inactive), the GI50 (HL-60) was > 80.9 µM (inactive) and the GI50 (KM-20L2) was > 100 µM (inactive). For the same compound, the GI50 (BT-549) was 17.7 µM (inactive) and the GI50 (SNB-78) was 12.7 µM (inactive).
